{"source": "patent US20040132639A1", "about": "“Combined use of enzyme inhibitors and pharmaceutical preparations thereof for the treatment and a prophylaxis of arteriosclerosis, for the treatment and prevention of allergic reactions of type I according to the gell and coombs classification and for the treatment and prevention of dermatological …” (priority 2001, published 2004)", "type_in_all_cases": "cell-based", "key": {"[1]": {"system": "human peripheric T lymphocytes", "assay": "DNA synthesis of human T lymphocytes (3[H]-thymidine incorporation)", "settings": "72 h incubation", "method": "(§1) The T cells were incubated for 72 h in the presence of said inhibitors, and the DNA synthesis was determined subsequently by a measurement of the ^3[H]-thymidine incorporation, as described by Reinhold et al. (Reinhold D. et al.: Inhibitors of dipeptidyl peptidase IV induce secretion of transforming growth factor β1 in PWM-stimulated PBMNC and T cells; Immunology 1997, 91: 354-360).\n(§2) FIG. 1: Synergistic and dose-dependent effect of inhibitors of DP IV (I49) and of aminopeptidase N (actinonine) on the DNA synthesis of human T lymphocytes. Human peripheric T cells were incubated for three days with the above-indicated concentrations of the inhibitors. Subsequently, ^3[H]-methyl thymidine was added to the culture medium, and after further 6 hours, the ^3[H]-thymidine amount incorporated into the DNA was measured.\nas §2, with “3:” for “1:”, “prolyl oligopeptidase (Boc-Ala-Thia)” for “aminopeptidase N (actinonine)”, “human peripheric” for “human”, “Human” for “Human peripheric”\nFIG. 5: Synergistic and dose-dependent effect of inhibitors of DP IV (I49) and of angiotensin-converting enzyme (captopril) on the DNA synthesis of human peripheric T lymphocytes.\nHuman T cells were incubated for three days with the above-indicated concentrations of the inhibitors. Subsequently, ^3[H]-methyl thymidine was added to the culture medium, and after further 6 hours, the ^3[H]-thymidine amount incorporated into the DNA was measured."}, "[2]": {"system": "human peripheric mononuclear cells (MNC)", "assay": "DNA synthesis of human peripheric mononuclear cells (3[H]-thymidine incorporation)", "settings": "72 h incubation", "method": "as §1, with “The MNC” for “The T cells”\nas §2, with “2:” for “1:”, “APN” for “aminopeptidase N”, “mononuclear cells (MNC).” for “T lymphocytes.”, “MNC” for “peripheric T cells”\nas §2, with “4: Enhanced” for “1: Synergistic”, “prolyl oligopeptidase (Boc-Ala-Thia)” for “aminopeptidase N (actinonine)”, “mononuclear cells (MNC).” for “T lymphocytes.”, “MNC” for “peripheric T cells”\nas §2, with “6:” for “1:”, “angiotensin-converting enzyme (captopril)” for “aminopeptidase N (actinonine)”, “mononuclear cells (MNC).” for “T lymphocytes.”, “MNC” for “peripheric T cells”"}, "[3]": {"system": "PHA-activated human mononuclear cells (MNC)", "assay": "Proliferation of PHA-activated human MNC (WST-1 Cell-Proliferation Assay)", "settings": "72 h", "method": "FIG. 7: The MNC were incubated for the time of 72 hours without (control), with mitogenic lectin phytohemagglutinine (PHA) or with PHA plus the inhibitors indicated. Subsequently, there was carried out a determination of the number of metabolically active cells by using the commercially available WST-1 Cell-Proliferation Assay (Takara Inc.) in accordance with the proposals of the manufacturer.\n(§3) FIG. 10: The mononuclear cells (MNC) were incubated for a time of 72 hours in the presence of the above-indicated inhibitors singly or in combination. Subsequently, there was carried out a determination of the number of metabolically active cells by using the commercially available WST-1 Cell-Proliferation Assay (Takara Inc.) in accordance with the proposals of the manufacturer."}, "KARPAS-299 cells": {"system": "KARPAS-299 cells", "assay": "Proliferation of human T cell line KARPAS-299 (WST-1 Cell-Proliferation Assay)", "settings": "single and simultaneous administration of I49 and APN inhibitors actinonine and probestine; 72 h; Example 8, FIG. 8", "method": "as §3, with “8:” for “10:”, “KARPAS-299-cells” for “mononuclear cells (MNC)”, “time period” for “time”, “without (control) and with” for “in the presence of”"}, "[4]": {"system": "activated human peripheric T cells", "assay": "Proliferation of activated human peripheric T cells (WST-1 Cell-Proliferation Assay)", "settings": "single and simultaneous administration of I49 and APN inhibitors actinonine and probestine; activation by phytohemagglutinine and phorbol-12-myristate-13-acetate; 72 h; Example 9, FIG. 9", "method": "as §3, with “9:” for “10:”, “T” for “mononuclear”, “with the exception of the untreated control, were activated by an addition of phytohemagglutinine and phorbol-12-myristate-13-acetate to the culture medium and” for “(MNC)”, “above” for “above-indicated”"}, "[5]": {"system": "human HaCaT keratinocytes", "assay": "DNA synthesis of human HaCaT keratinocytes (3[H]-thymidine incorporation)", "settings": "simultaneous administration of DP IV inhibitor I49 and APN inhibitor actinonine; 48 h; Example 13, FIG. 14", "method": "HaCaT cells were incubated for 48 hours in presence of the above-mentioned inhibitors, and the DNA synthesis was subsequently determined by a measurement of ^3[H]-thymidine-incorporation, as described by Reinhold et al. (Reinhold D et al.: Inhibitors of dipeptidyl peptidase IV induce secretion of transforming growth factor β1 in PWM-stimulated PBMNC and T cells. Immunology 1997; 91; 354-360).\nFIG. 14: Synergistic and dose-dependant effect of inhibitors of DP IV (I49) and of aminopeptidase N (actinonine) on the DNA synthesis of human HaCaT keratinocytes. The cells were incubated for 48 hours with the above-indicated concentrations of inhibitors. Subsequently, ^3[H]-methyl thymidine was added to the culture medium, and after further 6 hours, the amount of ^3[H]-thymidine incorporated into the DNA was measured."}, "[6]": {"system": "pokeweed-mitogene stimulated human MNC of the peripheral blood", "assay": "DNA synthesis of pokeweed-mitogene stimulated human MNC (3[H]-thymidine incorporation)", "settings": "simultaneous administration of DP IV inhibitor I49 and APN inhibitor bestatine; PWM 2 μg/ml; 72 h; Example 11, FIG. 11", "method": "The MNC were incubated for 72 hours in the presence of pokeweed-mitogene and of said inhibitors, and the DNA synthesis was determined subsequently by a measurement of the ^3[H]-thymidine-incorporation, is described by Reinhold et al. (Reinhold D et al.: Inhibitors of dipeptidyl peptidase IV induce secretion of transforming growth factor β1 in PWM-stimulated PBMNC and T cells. Immunology 1997; 91; 354-360).\nFIG. 11: Synergistic and dose-dependent effect of inhibitors of DP IV (I49) and of aminopeptidase N (bestatine) on the DNA synthesis of human PWM-stimulated MNC. Human peripheric MNC were incubated for three days with PWM (2 μg/ml) and the above-indicated concentration of inhibitors. Subsequently, ^3[H]-methyl thymidine was added to the culture medium, and the amount of ^3[H]-thymidine incorporated into the DNA was measured after further 6 hours."}, "[7]": {"system": "IL-4 production by pokeweed-mitogene stimulated human mononuclear cells (MNC)", "assay": "IL-4 production by pokeweed-mitogene stimulated human MNC (IL-4 ELISA)", "settings": "simultaneous administration of DP IV inhibitor I49 and APN inhibitor bestatine; PWM 2 μg/ml; 48 h; culture supernatants; Example 12, FIG. 12", "method": "The MNC were incubated for 48 hours in the presence of pokeweed-mitogene and of said inhibitors, and the concentration of IL-4 was subsequently determined in the respective culture supernatants by means of commercially available IL-4 analysis kids (ELISA) as described by Reinhold et al. (Reinhold D et al.: Inhibitors of dipeptidyl peptidase IV induce secretion of transforming growth factor β1 in PWM-stimulated PBMNC and T cells. Immunology 1997; 91; 354-360).\nFIG. 12: Synergistic and dose-dependent effect of inhibitors of DP IV (I49) and of aminopeptidase N (bestatine) on the IL-4-production by human, PWM-stimulated MNC. Human peripheric MNC were incubated for 48 hours with PWM (2 μg/ml) and with the above-indicated concentrations of the inhibitors. Subsequently, the concentration of IL-4 in the respective culture supernatants were measured by means of IL-4-ELISA."}, "[8]": {"settings": "simultaneous administration of DP IV inhibitor I49 and APN inhibitor actinonine, Example 1, FIG. 1"}, "[9]": {"settings": "simultaneous administration of DP IV inhibitor I49 and APN inhibitor actinonine, Example 2, FIG. 2"}, "[10]": {"settings": "single and simultaneous administration of I49 and actinonine, PHA, Example 7, FIG. 7"}, "[11]": {"settings": "single and simultaneous administration of I49 and X-Pro-aminopeptidase (APP) inhibitor apstatine, Example 10, FIG. 10"}, "[12]": {"settings": "simultaneous administration of DP IV inhibitor I49 and prolyl oligopeptidase inhibitor Boc-Ala thiazolidide, Example 3, FIG. 3"}, "[13]": {"settings": "simultaneous administration of DP IV inhibitor I49 and prolyl oligopeptidase inhibitor Boc-Ala thiazolidide, Example 4, FIG. 4"}, "[14]": {"settings": "simultaneous administration of DP IV inhibitor I49 and ACE inhibitor captopril, Example 5, FIG. 5"}, "[15]": {"settings": "simultaneous administration of DP IV inhibitor I49 and ACE inhibitor captopril, Example 6, FIG. 6"}}}
{"compound": "CCCCC[C@H](CC(=O)NO)C(=O)N[C@H](C(=O)N1CCC[C@H]1CO)C(C)C", "note": "[Actinonine]", "values": [{"measurement": "inhibition of DNA synthesis", "setting": "[1]; [8]", "value": "inhibited, in a more than additive to superadditive manner"}, {"measurement": "inhibition of DNA synthesis", "setting": "[2]; [9]", "value": "inhibited, in a more than additive to superadditive manner"}, {"measurement": "inhibition of proliferation (number of metabolically active cells)", "setting": "[3]; [10]", "value": "Inhibition of the Proliferation"}, {"measurement": "inhibition of proliferation (number of metabolically active cells)", "setting": "KARPAS-299 cells", "value": "Inhibition of the Proliferation"}, {"measurement": "inhibition of proliferation (number of metabolically active cells)", "setting": "[4]", "value": "Inhibition of the Proliferation"}, {"measurement": "inhibition of DNA synthesis", "setting": "[5]", "value": "inhibited, in a more than additive and, at lower concentrations, also in a superadditive manner"}]}
{"compound": "C[C@H](NC(=O)[C@@H]1CCCN1C(=O)[C@@H]1CCCN1C(=O)[C@@H](O)[C@H](N)Cc1ccccc1)C(N)=O", "note": "[Apstatine]", "values": [{"measurement": "inhibition of proliferation (number of metabolically active cells)", "setting": "[3]; [11]", "value": "Inhibition of the Proliferation"}]}
{"compound": "CC(C)C[C@H](NC(=O)[C@@H](O)[C@H](N)Cc1ccccc1)C(=O)O", "note": "[Bestatine]", "values": [{"measurement": "inhibition of DNA synthesis", "setting": "[6]", "value": "inhibited, in a more than additive manner"}, {"measurement": "inhibition of IL-4 production", "setting": "[7]", "value": "inhibited, in a more than additive to superadditive manner"}]}
{"compound": "CC(NC(=O)OC(C)(C)C)C(=O)N1CCSC1", "note": "(stereo not shown) [Boc-Ala thiazolidide]", "values": [{"measurement": "inhibition of DNA synthesis", "setting": "[1]; [12]", "value": "inhibited, in a more than additive to superadditive manner"}, {"measurement": "inhibition of DNA synthesis", "setting": "[2]; [13]", "value": "inhibited, in an increased manner"}]}
{"compound": "C[C@H](CS)C(=O)N1CCC[C@H]1C(=O)O", "note": "[Captopril]", "values": [{"measurement": "inhibition of DNA synthesis", "setting": "[1]; [14]", "value": "inhibited, in a more than additive to superadditive manner"}, {"measurement": "inhibition of DNA synthesis", "setting": "[2]; [15]", "value": "inhibited, in a more than additive to superadditive manner"}]}
{"compound": "N[C@@H](CCCCNC(=O)OCc1ccc([N+](=O)[O-])cc1)C(=O)N1CCSC1", "note": "[I49, Lys[Z(NO2)]-thiazolidide]", "values": [{"measurement": "inhibition of DNA synthesis", "setting": "[1]; [14]", "value": "inhibited, in a more than additive to superadditive manner"}, {"measurement": "inhibition of DNA synthesis", "setting": "[1]; [8]", "value": "inhibited, in a more than additive to superadditive manner"}, {"measurement": "inhibition of DNA synthesis", "setting": "[1]; [12]", "value": "inhibited, in a more than additive to superadditive manner"}, {"measurement": "inhibition of DNA synthesis", "setting": "[2]; [15]", "value": "inhibited, in a more than additive to superadditive manner"}, {"measurement": "inhibition of DNA synthesis", "setting": "[2]; [9]", "value": "inhibited, in a more than additive to superadditive manner"}, {"measurement": "inhibition of DNA synthesis", "setting": "[2]; [13]", "value": "inhibited, in an increased manner"}, {"measurement": "inhibition of proliferation (number of metabolically active cells)", "setting": "[3]; [11]", "value": "Inhibition of the Proliferation"}, {"measurement": "inhibition of proliferation (number of metabolically active cells)", "setting": "[3]; [10]", "value": "Inhibition of the Proliferation"}, {"measurement": "inhibition of proliferation (number of metabolically active cells)", "setting": "KARPAS-299 cells", "value": "Inhibition of the Proliferation"}, {"measurement": "inhibition of proliferation (number of metabolically active cells)", "setting": "[4]", "value": "Inhibition of the Proliferation"}, {"measurement": "inhibition of DNA synthesis", "setting": "[6]", "value": "inhibited, in a more than additive manner"}, {"measurement": "inhibition of IL-4 production", "setting": "[7]", "value": "inhibited, in a more than additive to superadditive manner"}, {"measurement": "inhibition of DNA synthesis", "setting": "[5]", "value": "inhibited, in a more than additive and, at lower concentrations, also in a superadditive manner"}]}
{"compound": "Probestine", "values": [{"measurement": "inhibition of proliferation (number of metabolically active cells)", "setting": "KARPAS-299 cells", "value": "Inhibition of the Proliferation"}, {"measurement": "inhibition of proliferation (number of metabolically active cells)", "setting": "[4]", "value": "Inhibition of the Proliferation"}]}
